{
  "source": "patent US20260078103A1",
  "about": "“ISOQUINOLONES AS PI3K INHIBITORS” (OnKure, Inc., priority 2022, published 2026)",
  "key": {"[1]": {"tested_on": "phosphorylation of AKT (pAKT) in SKBR3 cells express WT PI3Ka", "assay": "In vitro cell pAKT (Ser473) HTRF, SKBR3 cells", "type": "cell-based", "conditions": "cellular pAKT, 6 hours", "how_it_was_run": "(§1)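 pAKT (Ser473) was quantified by HTRF in lysates from cells exposed 6 h at 37 °C to 10-point compound series, with T47D in insulin-supplemented RPMI/10% FBS and SKBR3 in McCoy's 5a/10% FBS. Controls: 0.1% DMSO (high) and 10 uM alpelisib (low). IC50 from sigmoidal curve fitting.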"}, "[2]": {"tested_on": "SKBR3 cells express WT PI3Ka", "assay": "In vitro cell proliferation, SKBR3 cells (CellTiter-Glo)", "type": "cell-based", "conditions": "inhibition of proliferation, 72 hours", "how_it_was_run": "(§2)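 T47D cells in RPMI/10% FBS/insulin (0.2 units/mL) or SKBR3 in McCoys 5a/10% FBS, 1,500 cells/well, grown 72 h at 37 °C with 10-point compound dilutions. CellTiter-Glo luminescence; % inhibition normalised to 0.1% DMSO and 10 uM Alpelisib, EC50 from four-parameter curve fit.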"}, "[3]": {"assay": "Mouse pharmacokinetics, single IV or PO dose, plasma LC/MS/MS", "type": "in vivo", "conditions": "CD1 mice", "description": "CD1 mice were dosed with a single IV or PO dose, followed by serial sampling of plasma at 0.0833 (IV only), 0.25, 0.5, 1, 2, 4, 8, 24 hours post dose. Desired serial concentrations of working solutions were achieved by diluting stock solution of analyte with 50% acetonitrile in water solution.10 μL of working solutions […] were added to 10 μL of the blank Female CD1 Mouse plasma to achieve calibration standards of 0.5˜1000 ng/ml (0.5, 1, 2, 5, 10, 50, 100, 500, 1000 ng/ml) in a total volume of 20 μL. Five quality control samples at 1 ng/ml, 2 ng/ml, 5 ng/ml, 50 ng/ml and 800 ng/ml for plasma were prepared independently of those used for the calibration curves. These QC samples were prepared on the day of analysis in the same way as calibration standards. 20 μL standards, 20 μL QC samples and 20 μL unknown samples (10 μL plasma with 10 μL blank solution) were added to 200 μL of acetonitrile containing IS mixture for precipitating protein respectively. Then the samples were vortexed for 30 s. after centrifugation at 4° Celsius, 4000 rpm for 15 min. The supernatant was diluted with water at a ratio of 1:2 (V/V, 1:2), Then 5 μL of diluted supernatant was injected into the LC/MS/MS system for quantitative analysis."}, "[4]": {"tested_on": "T47D cells expressing mutant PI3Ka (H1047R)", "assay": "In vitro cell proliferation, T47D cells (CellTiter-Glo)", "type": "cell-based", "conditions": "inhibition of proliferation, 72 hours, read-out: Avg T-47D EC50", "how_it_was_run": "as §2"}, "[5]": {"tested_on": "phosphorylation of AKT (pAKT) in T47D cells expressing mutant PI3Ka (H1047R)", "assay": "In vitro cell pAKT (Ser473) HTRF, T47D cells", "type": "cell-based", "conditions": "cellular pAKT, T47D cells, mutant PI3Ka (H1047R), 6 hours; read-out: Avg T-47D IC50", "how_it_was_run": "as §1"}},
  "note": "Where two headings read alike, the source gives them in different places.",
  "data": [
    {"molecule": "Cc1cc(C(C)Nc2ccc(Cl)nc2C(=O)O)c2cc(C3=CCC(C)(C)CC3)n(C)c(=O)c2c1", "note": "(single isomer, unassigned) [Example 23, 6-chloro-3-((1-(3-(4,4-dimethylcyclohex-1-en-1-yl)-2,7-dimethyl-1-oxo-1,2-dihydroisoquinolin-5-yl)ethyl)amino)picolinic acid]", "values": [
      {"measurement": "IC50", "setting": "[1]", "value": "> 15", "unit": "µM"},
      {"measurement": "EC50", "setting": "[2]", "value": "2 to 15", "unit": "µM"},
      {"measurement": "PK-Mouse: PO F", "setting": "[3]; PO 10 mg/kg vs IV 1 mg/kg", "value": 106, "unit": "%"},
      {"measurement": "AUC(0-t)", "setting": "[3]; mouse, plasma, IV 1 mg/kg, 20% PEG400/20% PG/60% of 20% HPβCD solution in water, read-out: PK-Mouse: IV AUC last", "value": 683, "unit": "ng·h/mL"},
      {"measurement": "clearance", "setting": "[3]; mouse, plasma, IV 1 mg/kg, 20% PEG400/20% PG/60% of 20% HPβCD solution in water, read-out: PK-Mouse: IV Cl", "value": 24.6, "unit": "mL/min/kg"},
      {"measurement": "AUC(0-t)", "setting": "[3]; mouse, plasma, PO 10 mg/kg, 30% SBEβCD in water, read-out: PK-Mouse PO AUC last", "value": 7230, "unit": "ng·h/mL"},
      {"measurement": "EC50", "setting": "[4]", "value": "1 to 500", "unit": "nM"},
      {"measurement": "IC50", "setting": "[5]", "value": "500 to 2000", "unit": "nM"}
    ]}
  ]
}
